The record followed here is BindingDB's records for doi:10.1016/j.bmcl.2011.10.035 (Sepuluh Nopember Institute of Technology, 2011).

SMILES strings stand for the structures.

For this assay, the target named is Aldo-keto reductase family 1 member B1 (Homo sapiens, UniProt P15121). The experiment in a line: Inhibition of recombinant human aldose reductase using dl-glyceraldehyde as substrate after 10 mins by spectrophotometry.
In general, IC50 refers to the concentration that inhibits the measured activity by half. In the case of `CC(=CC(=O)CC(C)C(=O)O)[C@H]1CC(=O)[C@@]2(C)C3=C(C(=O)C[C@]12C)[C@@]1(C)CCC(=O)C(C)(C)[C@@H]1C[C@@H]3O` (stereo partly drawn), the IC50 was more than 195 µM.

For the compound `CC(CC(=O)C[C@@H](C)[C@H]1CC(=O)[C@@]2(C)C3C(C(=O)C(=O)[C@]12C)[C@@]1(C)CC[C@H](O)C(C)(C)[C@@H]1C[C@@H]3O)C(=O)O` (stereo partly drawn), the IC50 is more than 188 µM.

Turning to `CC(CC(=O)C[C@@H](C)[C@H]1CC(=O)[C@@]2(C)C3C(=O)C[C@H]4C(C)(C)[C@@H](O)CC[C@]4(C)C3C(=O)C(=O)[C@]12C)C(=O)O` (stereo partly drawn), the IC50 is more than 193 µM.
